{"source": "ChEMBL document CHEMBL5107949", "about": "“Design, synthesis, and antibacterial activity of N-(trifluoromethyl)phenyl substituted pyrazole derivatives” (RSC Med Chem, 2021)", "key": {"Staphylococcus aureus [1]": {"system": "Staphylococcus aureus", "experiment": "Antibacterial activity against Staphylococcus aureus clinical isolate 1088888 assessed as inhibition of bacterial growth by CLSI protocol based broth microdilution method", "type": "functional"}, "Staphylococcus aureus [2]": {"system": "Staphylococcus aureus", "experiment": "Antibacterial activity against antibiotic resistant Staphylococcus aureus ATCC 33591 assessed as inhibition of bacterial growth by CLSI protocol based broth microdilution method", "type": "functional"}, "Staphylococcus aureus [3]": {"system": "Staphylococcus aureus", "experiment": "Antibacterial activity against antibiotic susceptible Staphylococcus aureus ATCC 25923 assessed as inhibition of bacterial growth by CLSI protocol based broth microdilution method", "type": "functional"}, "Enterococcus faecalis [4]": {"system": "Enterococcus faecalis", "experiment": "Antibacterial activity against Enterococcus faecalis clinical isolate 1100440 assessed as inhibition of bacterial growth by CLSI protocol based broth microdilution method", "type": "functional"}, "Enterococcus faecalis [5]": {"system": "Enterococcus faecalis", "experiment": "Inhibition of biofilm formation in Enterococcus faecalis ATCC 29212 at 12.5 ug/ml incubated for 24 hrs by Calgary biofilm device assay", "type": "functional", "details": "dose 12.5 µg/ml"}, "Staphylococcus aureus [6]": {"system": "Staphylococcus aureus", "experiment": "Bactericidal activity against Staphylococcus aureus ATCC 700699 persisters assessed as log reduction in colony forming unit at 2 to 32 times MIC measured for 4 hrs by time kill assay", "type": "functional, organism-based", "details": "DDE = dose-dependent effect"}, "Staphylococcus aureus [7]": {"system": "Staphylococcus aureus", "experiment": "Antibacterial activity against Staphylococcus aureus ATCC 29213 assessed as inhibition of bacterial growth by CLSI protocol based broth microdilution method", "type": "functional"}, "Staphylococcus aureus [8]": {"system": "Staphylococcus aureus", "experiment": "Inhibition of lipid synthesis in Staphylococcus aureus ATCC 29213 at 0.5 times MIC preincubated for 30 mins followed by [3H]-glycerol and measured after 50 mins by [3H]-glycerol incorporation based beta scintillation counter analysis", "type": "functional", "details": "time 80 min; 1.333 h"}, "Staphylococcus aureus [9]": {"system": "Staphylococcus aureus", "experiment": "Inhibition of DNA synthesis in Staphylococcus aureus ATCC 29213 at 0.5 times MIC preincubated for 30 mins followed by [3H]-thymidine and measured after 30 mins by [3H]-thymidine incorporation based beta scintillation counter analysis", "type": "functional", "details": "time 60 min; 1 h"}, "Enterococcus faecium [10]": {"system": "Enterococcus faecium", "experiment": "Antibacterial activity against Enterococcus faecium clinical isolate 1091282 assessed as inhibition of bacterial growth by CLSI protocol based broth microdilution method", "type": "functional"}, "Staphylococcus aureus [11]": {"system": "Staphylococcus aureus", "experiment": "Antibacterial activity against Staphylococcus aureus clinical isolate 1088064 assessed as inhibition of bacterial growth by CLSI protocol based broth microdilution method", "type": "functional"}, "Enterococcus faecalis [12]": {"system": "Enterococcus faecalis", "experiment": "Anti-biofilm activity against Enterococcus faecalis ATCC 29212 assessed as eradication of biofilm formation incubated for 24 hrs by Calgary biofilm device assay", "type": "functional"}, "Staphylococcus aureus [13]": {"system": "Staphylococcus aureus", "experiment": "Bactericidal activity against Staphylococcus aureus ATCC 700699 persisters assessed as log reduction in colony forming unit at 16 times MIC measured for 4 hrs by time kill assay", "type": "functional"}, "Staphylococcus aureus [14]": {"system": "Staphylococcus aureus", "experiment": "Antibacterial activity against antibiotic resistant Staphylococcus aureus ATCC 33592 assessed as inhibition of bacterial growth by CLSI protocol based broth microdilution method", "type": "functional"}, "Enterococcus faecium [15]": {"system": "Enterococcus faecium", "experiment": "Antibacterial activity against Enterococcus faecium clinical isolate 1088228 assessed as inhibition of bacterial growth by CLSI protocol based broth microdilution method", "type": "functional"}, "Staphylococcus aureus [16]": {"system": "Staphylococcus aureus", "experiment": "Antibacterial activity against Staphylococcus aureus clinical isolate 1089106 assessed as inhibition of bacterial growth by CLSI protocol based broth microdilution method", "type": "functional"}, "Enterococcus faecalis [17]": {"system": "Enterococcus faecalis", "experiment": "Anti-biofilm activity against Enterococcus faecalis ATCC 29212 assessed as biofilm eradication at 3.125 to 12.5 ug/ml incubated for 24 hrs by Calgary biofilm device assay", "type": "functional, organism-based", "details": "dose 3.125-12.5 µg/ml"}, "Enterococcus faecalis [18]": {"system": "Enterococcus faecalis", "experiment": "Anti-biofilm activity against Enterococcus faecalis ATCC 29212 assessed as minimum bactericidal concentration incubated for 24 hrs by Calgary biofilm device assay", "details": "ATCC 29212, 24 h"}, "Staphylococcus aureus [19]": {"system": "Staphylococcus aureus", "experiment": "Bactericidal activity against Staphylococcus aureus ATCC 700699 persisters assessed as log reduction in colony forming unit at 16 times MIC after 4 hrs by colony counting method", "type": "functional"}, "Enterococcus faecalis [20]": {"system": "Enterococcus faecalis", "experiment": "Antibacterial activity against Enterococcus faecalis clinical isolate 1091720 assessed as inhibition of bacterial growth by CLSI protocol based broth microdilution method", "type": "functional"}, "Staphylococcus aureus [21]": {"system": "Staphylococcus aureus", "experiment": "Antibacterial activity against Staphylococcus aureus clinical isolate 1088060 assessed as inhibition of bacterial growth by CLSI protocol based broth microdilution method", "type": "functional"}, "Staphylococcus aureus [22]": {"system": "Staphylococcus aureus", "experiment": "Inhibition of DNA synthesis in Staphylococcus aureus ATCC 29213 at 1 times MIC preincubated for 30 mins followed by [3H]-thymidine and measured after 30 mins by [3H]-thymidine incorporation based beta scintillation counter analysis", "type": "functional", "details": "time 60 min; 1 h"}, "Staphylococcus aureus [23]": {"system": "Staphylococcus aureus", "experiment": "Antibacterial activity against antibiotic resistant Staphylococcus aureus BAA-2312 assessed as inhibition of bacterial growth by CLSI protocol based broth microdilution method", "type": "functional"}, "Staphylococcus aureus [24]": {"system": "Staphylococcus aureus", "experiment": "Inhibition of DNA synthesis in Staphylococcus aureus ATCC 29213 at 0.25 times MIC preincubated for 30 mins followed by [3H]-thymidine and measured after 30 mins by [3H]-thymidine incorporation based beta scintillation counter analysis", "type": "functional", "details": "time 60 min; 1 h"}, "Bacillus subtilis": {"system": "Bacillus subtilis", "experiment": "Antibacterial activity against antibiotic resistant Bacillus subtilis ATCC 6623 assessed as inhibition of bacterial growth by CLSI protocol based broth microdilution method", "type": "functional"}, "Enterococcus faecium [25]": {"system": "Enterococcus faecium", "experiment": "Antibacterial activity against Enterococcus faecium clinical isolate 1089544 assessed as inhibition of bacterial growth by CLSI protocol based broth microdilution method", "type": "functional"}, "Enterococcus faecium [26]": {"system": "Enterococcus faecium", "experiment": "Antibacterial activity against Enterococcus faecium clinical isolate 1088168 assessed as inhibition of bacterial growth by CLSI protocol based broth microdilution method", "type": "functional"}, "Staphylococcus aureus [27]": {"system": "Staphylococcus aureus", "experiment": "Bactericidal activity against Staphylococcus aureus ATCC 700699 persisters assessed as log reduction in colony forming unit at 32 times MIC measured for 4 hrs by time kill assay", "type": "functional"}, "Staphylococcus aureus [28]": {"system": "Staphylococcus aureus", "experiment": "Antibacterial activity against Staphylococcus aureus clinical isolate 1088610 assessed as inhibition of bacterial growth by CLSI protocol based broth microdilution method", "type": "functional"}, "Enterococcus faecium [29]": {"system": "Enterococcus faecium", "experiment": "Antibacterial activity against vancomycin resistant Enterococcus faecium ATCC 700221 assessed as inhibition of bacterial growth by CLSI protocol based broth microdilution method", "type": "functional"}, "Staphylococcus aureus [30]": {"system": "Staphylococcus aureus", "experiment": "Inhibition of RNA synthesis in Staphylococcus aureus ATCC 29213 at 0.5 times MIC preincubated for 30 mins followed by [3H]-uridine and measured after 30 mins by [3H]-uridine incorporation based beta scintillation counter analysis", "type": "functional", "details": "time 60 min; 1 h"}, "Enterococcus faecium [31]": {"system": "Enterococcus faecium", "experiment": "Antibacterial activity against Enterococcus faecium clinical isolate 1088925 assessed as inhibition of bacterial growth by CLSI protocol based broth microdilution method", "type": "functional"}, "Enterococcus faecalis [32]": {"system": "Enterococcus faecalis", "experiment": "Inhibition of biofilm formation in Enterococcus faecalis ATCC 29212 at 6.25 ug/ml incubated for 24 hrs by Calgary biofilm device assay", "type": "functional", "details": "dose 6.25 µg/ml"}, "Staphylococcus aureus [33]": {"system": "Staphylococcus aureus", "experiment": "Inhibition of protein synthesis in Staphylococcus aureus ATCC 29213 at 0.25 times MIC preincubated for 30 mins followed by [3H]-leucine and measured after 40 mins by [3H]-leucine incorporation based beta scintillation counter analysis", "type": "functional", "details": "time 70.0 min"}, "Staphylococcus aureus [34]": {"system": "Staphylococcus aureus", "experiment": "Inhibition of biofilm formation in Staphylococcus aureus ATCC 25923 at 3.125 to 12.5 ug/ml incubated for 24 hrs by Calgary biofilm device assay", "type": "functional, organism-based", "details": "dose 3.125-12.5 µg/ml, DDE = dose-dependent effect"}, "Staphylococcus aureus [35]": {"system": "Staphylococcus aureus", "experiment": "Inhibition of RNA synthesis in Staphylococcus aureus ATCC 29213 at 0.25 times MIC preincubated for 30 mins followed by [3H]-uridine and measured after 30 mins by [3H]-uridine incorporation based beta scintillation counter analysis", "type": "functional", "details": "time 60 min; 1 h"}, "Enterococcus faecalis [36]": {"system": "Enterococcus faecalis", "experiment": "Antibacterial activity against Enterococcus faecalis clinical isolate 1091563 assessed as inhibition of bacterial growth by CLSI protocol based broth microdilution method", "type": "functional"}}, "note": "Active and inactive are the calls of the source. The calls are words filed in the database; no cut-off is given here."}
{"smiles": "O=C(O)c1ccc(-c2nn(-c3ccc(C(F)(F)F)cc3)cc2CNc2ccc(Br)c(C(F)(F)F)c2)cc1", "values": [{"measurement": "MIC", "setting": "Staphylococcus aureus [1]", "result": 8, "unit": "µg/mL"}, {"measurement": "MIC", "setting": "Staphylococcus aureus [2]", "result": 1.56, "unit": "µg/mL"}, {"measurement": "MIC", "setting": "Staphylococcus aureus [3]", "result": 0.78, "unit": "µg/mL"}, {"measurement": "MIC", "setting": "Enterococcus faecalis [4]", "result": 8, "unit": "µg/mL"}, {"measurement": "inhibition", "setting": "Enterococcus faecalis [5]", "result": "Active"}, {"measurement": "Activity", "setting": "Staphylococcus aureus [6]", "result": "Dde"}, {"measurement": "MIC", "setting": "Staphylococcus aureus [7]", "result": 1, "unit": "µg/mL"}, {"measurement": "inhibition (INH)", "setting": "Staphylococcus aureus [8]", "result": 57, "unit": "%"}, {"measurement": "inhibition (INH)", "setting": "Staphylococcus aureus [9]", "result": 43.6, "unit": "%"}, {"measurement": "MIC", "setting": "Enterococcus faecium [10]", "result": 8, "unit": "µg/mL"}, {"measurement": "MIC", "setting": "Staphylococcus aureus [11]", "result": 4, "unit": "µg/mL"}, {"measurement": "MBEC", "setting": "Enterococcus faecalis [12]", "result": 6.25, "unit": "µg/mL"}, {"measurement": "log(activity)", "setting": "Staphylococcus aureus [13]", "result": 3}, {"measurement": "MIC", "setting": "Staphylococcus aureus [14]", "result": 0.78, "unit": "µg/mL"}, {"measurement": "MIC", "setting": "Enterococcus faecium [15]", "result": 8, "unit": "µg/mL"}, {"measurement": "MIC", "setting": "Staphylococcus aureus [16]", "result": 4, "unit": "µg/mL"}, {"measurement": "Activity", "setting": "Enterococcus faecalis [17]", "result": "Active"}, {"measurement": "MBC", "setting": "Enterococcus faecalis [18]", "result": 6.25, "unit": "µg/mL"}, {"measurement": "log(activity)", "setting": "Staphylococcus aureus [19]", "result": ">2"}, {"measurement": "MIC", "setting": "Enterococcus faecalis [20]", "result": 8, "unit": "µg/mL"}, {"measurement": "MIC", "setting": "Staphylococcus aureus [21]", "result": 4, "unit": "µg/mL"}, {"measurement": "inhibition (INH)", "setting": "Staphylococcus aureus [22]", "result": 76, "unit": "%"}, {"measurement": "MIC", "setting": "Staphylococcus aureus [23]", "result": 1.56, "unit": "µg/mL"}, {"measurement": "inhibition (INH)", "setting": "Staphylococcus aureus [24]", "result": 44, "unit": "%"}, {"measurement": "MIC", "setting": "Bacillus subtilis", "result": 0.39, "unit": "µg/mL"}, {"measurement": "MIC", "setting": "Enterococcus faecium [25]", "result": 8, "unit": "µg/mL"}, {"measurement": "MIC", "setting": "Enterococcus faecium [26]", "result": 4, "unit": "µg/mL"}, {"measurement": "log(activity)", "setting": "Staphylococcus aureus [27]", "result": 5}, {"measurement": "MIC", "setting": "Staphylococcus aureus [28]", "result": 4, "unit": "µg/mL"}, {"measurement": "MIC", "setting": "Enterococcus faecium [29]", "result": 0.78, "unit": "µg/mL"}, {"measurement": "inhibition (INH)", "setting": "Staphylococcus aureus [30]", "result": 38.1, "unit": "%"}, {"measurement": "MIC", "setting": "Enterococcus faecium [31]", "result": 8, "unit": "µg/mL"}, {"measurement": "inhibition", "setting": "Enterococcus faecalis [32]", "result": "Active"}, {"measurement": "inhibition", "setting": "Staphylococcus aureus [33]", "result": 55.4, "unit": "%"}, {"measurement": "inhibition", "setting": "Staphylococcus aureus [34]", "result": "Dde"}, {"measurement": "inhibition (INH)", "setting": "Staphylococcus aureus [35]", "result": 14.1, "unit": "%"}, {"measurement": "MIC", "setting": "Enterococcus faecalis [36]", "result": 8, "unit": "µg/mL"}]}
